From patent US20130178466A1, “Treatment of Microbial Infections” (BIOCOPEA LIMITED, priority 2009, published 2013)
Like-named read-outs stand apart in the source and are kept apart here.

Columns and labels:
Influenza A/PR/8/34 = test: In vivo mouse challenge with lethal influenza (H1N1); set-up: species or system C57BL/6 female mice; settings: H1N1-infected mice, single intra-peritoneal dose on day 3
Protocol: Protocol: Fifty (50) C57BL/6 female mice (6-7 weeks old), were divided into five (5) experimental groups containing ten (10) animals each. On day 1, animals received an intranasal lethal dose (50 μl total, 25 μl nostril) of Influenza A/PR/8/34 under halothane induced anaesthesia. On Day 3, animals received one intra-peritoneal injection (100-150 μl) of the test compound (360 μg ibuproxam (BC1048), 54 μg oxametacin (BC1002), 180 μg benoxaprofen (BC 1005), 189 μg benoxaprofen hydroxamate (BC1006)).
All animals were assessed daily for morbidity, weight loss and survival from Day 1 until at least Day 6. Morbidity variables (i.e. Body Condition, Posture, Activity, Piloerection, Respiration, Vocalisation, Ataxia and Oculo/Nasal Discharges) were recorded according to the following scale of severity: Normal (0), Mild (1), Laboured (2) and Severe/Cull-point (3).
Using standard techniques as described above, mice were infected with a H1N1 virus which was allowed to become established in each of the subjects. […] The weight loss of both treated and untreated mice was then determined.

IFN-γ [1] = test: IFN-γ levels in PBMC under LPS stimulation (ELISA); type: cell-based, human; set-up: production of IFN after LPS stimulation (in words): dose or concentration left out as unconfirmed
Protocol: (§1) The two mitogens that the inventors used to stimulate lymphocytes, and therefore assess immune function, were lipopolysaccharide (LPS) and Concanavalin A (Con A). LPS acts on B cells but not T cells, whereas Con A acts on T cells but not B cells. […] Peripheral Blood Mononuclear Cells (PMBC) were independently administered with each mitogen, LPS or Con A, and then treated with ibuproxam, benoxaprofen hydroxamate or pentoxifylline. […] Blood was collected in 6 ml vacutainers (green cap). Blood was processed within 2 h of collection. Materials used: Non-coagulated blood; FCS; RPMI-1640 media supplemented with L-Gln and P/S; PBS; sterile tips and pipettes; Sterile 15 ml Falcon; Sterile V-bottom 96-well plates with lids; Neubauer chamber; Trypan Blue solution; 70% IPA solution; Accuspin-Histopaque tubes (Sigma, A7054) Procedure: • 1. Dilute samples 1:1 in sterile PBS; • 2. Add 30 ml of diluted blood into an Accuspin-Histopaque tube (Sigma, A7054); • 3. Centrifuge at 800 rcf 15 min at room temperature (RT); • 4. After centrifugation, the red blood cells will remain at the bottom below the frit. The monocytes (PBMC) will be present on a layer above the frit, with the plasma on top; • 5. Collect the PBMC layer with a pipette into a fresh 15 ml Falcon tube and top up to 15 ml of PBS; • 6. Centrifuge at 250 rcf 10 min at RT; • 7. Discard the supernatant, flick the pellet and add another 10 ml of PBS; • 8. Centrifuge at 250 rcf 10 min at RT; • 9. Repeat steps 7 and 8; • 10. […] Count cells and make a 4×10^6 cell/ml suspension in complete medium. Add 100 μl of cell suspension per well in a V-bottom 96-well plate. Then add 50 μl of stimulant or vehicle in complete media, and 50 μl of drug or vehicle in complete media. Incubate the cells for 24 h at 37° C. 5% CO2; • 12. […] The values in the Table are expressed as the percentage value of the LPS only control. […] Standard deviation values (st error) are given underneath each value of expressed IFN-γ or TNF-α levels.

TNF-α [2] = test: TNF-α levels in PBMC under LPS stimulation (ELISA); type: cell-based, human; settings: for effect on TNF under LPS stimulation (in words): LPS stimulated cells
Protocol: as §1

IFN-γ [3] = test: IFN-γ levels in PBMC under Con A stimulation (ELISA); type: cell-based, human; settings: for effect against ConA-stimulated IFN production (in words): Con A stimulated cells
Protocol: (§2) The two mitogens that the inventors used to stimulate lymphocytes, and therefore assess immune function, were lipopolysaccharide (LPS) and Concanavalin A (Con A). LPS acts on B cells but not T cells, whereas Con A acts on T cells but not B cells.
(§3) Blood was collected in 6 ml vacutainers (green cap). Blood was processed within 2 h of collection.
(§4) Materials used: Non-coagulated blood; FCS; RPMI-1640 media supplemented with L-Gln and P/S; PBS; sterile tips and pipettes; Sterile 15 ml Falcon; Sterile V-bottom 96-well plates with lids; Neubauer chamber; Trypan Blue solution; 70% IPA solution; Accuspin-Histopaque tubes (Sigma, A7054)
(§5) Procedure: • 1. Dilute samples 1:1 in sterile PBS; • 2. Add 30 ml of diluted blood into an Accuspin-Histopaque tube (Sigma, A7054); • 3. Centrifuge at 800 rcf 15 min at room temperature (RT); • 4. After centrifugation, the red blood cells will remain at the bottom below the frit. The monocytes (PBMC) will be present on a layer above the frit, with the plasma on top; • 5. Collect the PBMC layer with a pipette into a fresh 15 ml Falcon tube and top up to 15 ml of PBS; • 6. Centrifuge at 250 rcf 10 min at RT; • 7. Discard the supernatant, flick the pellet and add another 10 ml of PBS; • 8. Centrifuge at 250 rcf 10 min at RT; • 9. Repeat steps 7 and 8; • 10. Discard the supernatant and resuspend the pellet in 1 ml of complete medium (RPMI-1640 10% FCS); • 11. Count cells and make a 4×10^6 cell/ml suspension in complete medium. Add 100 μl of cell suspension per well in a V-bottom 96-well plate. Then add 50 μl of stimulant or vehicle in complete media, and 50 μl of drug or vehicle in complete media. Incubate the cells for 24 h at 37° C. 5% CO2; • 12. After incubation, take 60 μl of cell supernatant to measure IFNγ and TNFα by ELISA (OptEIA human IFNγ, cat No. 555142 and human TNF, Cat No. 555212) following manufacturer's instructions (BD Biosciences).

TNF-α [4] = test: TNF-α levels in PBMC under Con A stimulation (ELISA); type: cell-based, human; settings: for effect against ConA-stimulated TNF production (in words): Con A stimulated cells
Protocol: as §2, §3, §4, §5

[5] = LPS, 1 μM, percentage of LPS only control (100%)
[6] = LPS, 10 μM, percentage of LPS only control (100%)
[7] = LPS, 100 μM, percentage of LPS only control (100%)
[8] = no LPS, 1 μM, percentage of LPS only control
[9] = no LPS, 10 μM, percentage of LPS only control
[10] = no LPS, 100 μM, percentage of LPS only control
[11] = ConA, 1 μM, compared to 100% untreated cells under Con A stimulation
[12] = ConA, 10 μM, compared to 100% untreated cells under Con A stimulation
[13] = ConA, 100 μM, compared to 100% untreated cells under Con A stimulation

Row | Structure (SMILES) | survival rate versus control, untreated mice (Influenza A/PR/8/34) | IFN-γ % signal (IFN-γ [1]; [5]) [%] | IFN-γ % signal (IFN-γ [1]; [6]) [%] | IFN-γ % signal (IFN-γ [1]; [7]) [%] | IFN-γ % signal (IFN-γ [1]; [8]) [%] | IFN-γ % signal (IFN-γ [1]; [9]) [%] | IFN-γ % signal (IFN-γ [1]; [10]) [%] | TNF-α % signal (TNF-α [2]; [5]) [%] | TNF-α % signal (TNF-α [2]; [6]) [%] | TNF-α % signal (TNF-α [2]; [7]) [%] | TNF-α % signal (TNF-α [2]; [8]) [%] | TNF-α % signal (TNF-α [2]; [9]) [%] | TNF-α % signal (TNF-α [2]; [10]) [%] | effect against ConA-stimulated IFN production (in words) (IFN-γ [3]) | IFN-γ % signal (IFN-γ [3]; [11]) [%] | IFN-γ % signal (IFN-γ [3]; [12]) [%] | IFN-γ % signal (IFN-γ [3]; [13]) [%] | IFN-γ % signal (IFN-γ [3]; no ConA, 1 μM) [%] | IFN-γ % signal (IFN-γ [3]; no ConA, 10 μM) [%] | IFN-γ % signal (IFN-γ [3]; no ConA, 100 μM) [%] | also measured
1 | COc1ccc2c(c1)c(CC(=O)NO)c(C)n2C(=O)c1ccc(Cl)cc1 [BC1002, oxametacin] | higher survival rate than the control | – | – | – | – | – | – | – | – | – | – | – | – | – | – | – | – | – | – | – | –
2 | CC(C(=O)O)c1ccc2oc(-c3ccc(Cl)cc3)nc2c1 (stereo not shown) [BC1005, benoxaprofen] | higher survival rate than the control | – | – | – | – | – | – | – | – | – | – | – | – | – | – | – | – | – | – | – | –
3 | CC(C(=O)NO)c1ccc2oc(-c3ccc(Cl)cc3)nc2c1 (stereo not shown) [BC1006, benoxaprofen hydroxamate] | higher survival rate than the control | 35.29 | 16.67 | 21.21 | 16.74 | 13.46 | 12.38 | 106.25 | 101.47 | 57.77 | −2.29 | −2.27 | 11.97 | clear effects | 98.35 | 33.81 | 3.78 | 3.76 | 2.80 | 1.82 | maximal effect against TNF under LPS stimulation (TNF-α [2]; at the higher concentration): 41%; effect against ConA-stimulated TNF production (in words) (TNF-α [4]): clear effects; TNF-α % signal (TNF-α [4]; [11]): 83.37%; TNF-α % signal (TNF-α [4]; [12]): 38.65%; TNF-α % signal (TNF-α [4]; [13]): 51.50%; TNF-α % signal (TNF-α [4]; no ConA, 1 μM): 2.84%; TNF-α % signal (TNF-α [4]; no ConA, 10 μM): 1.62%; TNF-α % signal (TNF-α [4]; no ConA, 100 μM): 19.51%
4 | CC(=O)CCCCn1c(=O)c2c(ncn2C)n(C)c1=O [BC1042, pentoxifylline] | higher survival rate than the control | 102.11 | 98.28 | 40.73 | 3.98 | 1.48 | 2.03 | 113.04 | 107.28 | 114.60 | 1.15 | −2.45 | −0.80 | little effect | 108.10 | 97.98 | 92.61 | 1.13 | 0.42 | 0.58 | production of IFN after LPS stimulation (in words) (IFN-γ [1]): less pronounced than ibuproxam; effect on TNF under LPS stimulation (in words) (TNF-α [2]): less of an effect; effect against ConA-stimulated TNF production (in words) (TNF-α [4]): little effect; TNF-α % signal (TNF-α [4]; [11]): 101.46%; TNF-α % signal (TNF-α [4]; [12]): 102.31%; TNF-α % signal (TNF-α [4]; [13]): 103.71%; TNF-α % signal (TNF-α [4]; no ConA, 1 μM): 1.11%; TNF-α % signal (TNF-α [4]; no ConA, 10 μM): −2.37%; TNF-α % signal (TNF-α [4]; no ConA, 100 μM): −0.77%
5 | CC(C)Cc1ccc(C(C)C(=O)NO)cc1 (stereo not shown) [BC1048, ibuproxam] | higher survival rate than the control | 89.21 | 96.62 | −1.28 | −4.14 | −3.67 | −6.29 | 105.78 | 105.67 | 109.93 | 3.14 | 0.48 | −1.28 | modest effect | 94.90 | 97.25 | 78.18 | −0.68 | −0.61 | −1.04 | production of IFN after LPS stimulation (in words) (IFN-γ [1]; highest concentration): completely blocks; effect on TNF under LPS stimulation (in words) (TNF-α [2]): less of an effect; effect against ConA-stimulated TNF production (in words) (TNF-α [4]): modest effect; TNF-α % signal (TNF-α [4]; [11]): 109.64%; TNF-α % signal (TNF-α [4]; [12]): 106.74%; TNF-α % signal (TNF-α [4]; [13]): 79.25%; TNF-α % signal (TNF-α [4]; no ConA, 1 μM): 3.08%; TNF-α % signal (TNF-α [4]; no ConA, 10 μM): 0.48%; TNF-α % signal (TNF-α [4]; no ConA, 100 μM): −1.25%
